This is an account of results in article PMC9863691, “A Novel Ferroptosis Inhibitor UAMC-3203, a Potential Treatment for Corneal Epithelial Wound” (Pharmaceutics, 2022).

The structures appear in SMILES notation. ≈ marks a conversion by molar mass, not a printed value.

The nature of one data set: solubility in buffers. It is filed as physicochemical. As to conditions: for water solubility: room temperature, 72 h. As for the experimental part:
Compound UAMC-3203 was synthetized in the laboratory of Medicinal Chemistry at the University of Antwerp, as reported by Devisscher L. et al.. Solubility of UAMC-3203 was determined in 0.1 M citrate buffer (pH 5 and pH 6) and phosphate-buffered saline (PBS, Gibco, Life Technologies Limited, Paisley, UK) at pH 7.4. Excess of UAMC-3203 (10–20 mg) was added to 500 µL of buffer in glass vials that were kept at room temperature and mixed (150 rpm) for 72 h. The pH of the solutions was measured daily with calibrated pH meter (Orion Research Incorporated, Boston, MA, USA) and adjusted if needed (with 0.1 N sodium hydroxide or 0.1 N hydrochloric acid). After 72 h, samples were withdrawn and centrifuged at 13,000 rpm for 15 min. The supernatant was collected and analyzed by high-pressure liquid chromatography (HPLC) for UAMC-3203 concentration.
The quantitation of UAMC-3203 was performed with […] reverse-phase HPLC system consisting of a degasser (G1379B), multi-sampler (G1367D), a binary pump (G1312B), a thermostat (G1316B), and a diode array detector (DAD) detector (G1315C). A Zorbax Eclipse XDB-C18 (4.6 × 50 mm, 4 μm; Agilent Technologies, Santa Clara, CA, USA) column was used for the analyses. The mobile phase was composed of 0.1% […] (Sigma-Aldrich, St. Louis, MO, USA) in Milli-Q-H2O and 0.1% […] in acetonitrile (LC-MS Chromasolv, Honeywell, Riedel-de Haen, Seelze, Germany) (65:35% v/v). Isocratic analysis was performed at a flow rate of 1 mL/min. The injection volume was 5 μL, and the detection wavelength was 240 nm.

A short description of data set [1]: drug distribution in porcine cornea ex vivo. It is filed as in vitro ADME. Here is the method:
Fresh porcine (a crossbreed between Matias and Yorkside) eyes were collected in the laboratory animal center at the University of Eastern Finland. The eyes were stored overnight in a keratinocyte serum-free medium (Gibco, Life Technologies Corporation, Grand Island, NY, USA) at +4 °C. The cornea was excised using an incision along the limbus, as described earlier.
The isolated corneas were rinsed with PBS and mounted in vertical Franz diffusion cells (PermeGear, Inc., Hellertown, PA, USA). Small magnetic stir bars were added to each receiver chamber, and 5 mL of 35 °C BSS Plus supplemented with 10 mM of 4-(2-hydroxyethyl)-1-piperazineethanesulfonic acid (HEPES; Lonza Bioscience, Walkersville, MD, USA) was added to the receiver compartment of each Frantz cell. The experiment was initiated by adding 50 µM UAMC-3203 in 10 mM HEPES-BSS Plus solution to the donor compartment. Samples of 500 µL from donor compartments and corneas were collected at the end of the experiments (at 5, 30, 60, and 120 min). The cornea samples were rinsed with PBS, the epithelial layer was scraped off from the corneas, and the remaining stroma–endothelium samples were cut to pieces. The experiments were carried out in triplicates. The samples were stored at −80 °C until liquid chromatography–tandem mass spectrometry (LC-MS/MS) analyses were performed.
The values of apparent partition coefficients (Kp) were calculated using drug concentrations on the tissue samples (at 120 min) and in the donor compartment buffer at time zero (ng/mL).
Quantitative analysis of UAMC-3203 was performed with the LC-MS/MS system that consisted of an Agilent 1290 series liquid chromatograph connected to an Agilent 6495 triple-quadruple mass spectrometer (Agilent Technologies, Inc., USA). The mobile phase consisted of 0.1% formic acid (Fisher chemical, Geel, Belgium), 1 mM ammonium formate (Honeywell, Fluka, Seelze, Germany) in Milli-Q-H2O (eluent A), and acetonitrile (LC-MS Chromasolv, Honeywell, Riedel-de Haen, Seelze, Germany) (eluent B). Gradient elution was used: 0.0 to 3.0 min: 25%→95% B, 3.0 to 3.5 min: 95% B, 3.5 to 3.6 min: 95%→25% B, 3.6 to 5.0 min 25% B. Solvent flow was 0.3 mL/min, and Poroshell 120 SB-C18 column (2.1 mm × 50 mm, 2.7 µm, Agilent Technologies, Inc., USA) was maintained at 60 °C. The injection volume was 2 µL. Nitrogen was used as a drying, nebulizer, and collision gas. The following conditions were used in the electrospray ion source: positive ion mode, sheath gas flow rate 11 L/min at 350 °C, drying gas flow rate 16 L/min at 200 °C, nebulizer gas pressure adjusted to 25 psi, capillary voltage 3500 V (ESI+), fragmentor voltage 380 V, dwell time 150 ms and cell accelerator voltage 5 V. The data were analyzed with Agilent Mass Hunter Quantitative Analyzed software (vB.09.00, build 9.0.647.0, Agilent Technologies, CA, USA). The precursor and fragment ions are presented in Supplementary Table S1.

Consider `O=S(=O)(NCCN1CCNCC1)c1ccc(NC2CCCCC2)c(NCc2ccccc2)c1` [UAMC-3203], for which the “solubility at pH 6.0 and 7.4 relative to pH 5.0” value in the data set “solubility in buffers” is reported as “about 3.5 times”. The water solubility stood at 36.7 ± 5.7 µM (≈ 17.3 µg/mL) in the data set “solubility in buffers” (pH 5.0, 0.1 M citrate buffer); 127.9 ± 16.1 µM (≈ 60.3 µg/mL) in “solubility in buffers” (pH 6.0, 0.1 M citrate buffer); 127.3 ± 17.3 µM (≈ 60 µg/mL) in the data set “solubility in buffers” (pH 7.4, PBS). Moreover, the “Kp epithelium/donor relative to Kp stroma/epithelium” value in data set [1] is listed as “≈ 52 times”. In data set [1] (50 µM donor), the “levels in epithelium higher than in stroma–endothelium” value is on record as 1–2 orders of magnitude. Further, the “level in the cornea at 5 min” value in data set [1] (50 µM donor, 5 min) is “≈ 20 µM”. The compound further came in with a Kp epithelium/donor in data set [1] (50 µM donor, 120 min) of 1.95 ± 0.45. The compound further came in with a Kp stroma/epithelium in data set [1] (50 µM donor, 120 min) of 0.04 ± 0.02. In addition, the “epithelium concentration relative to stroma at 120 min” value in data set [1] (120 min) is “≈ 28 times”. Further, in data set [1] (over the time points), the “concentration in corneal epithelium relative to corneal stroma” value is listed as 12–38 fold.
